Experimental data published in the NIST ThermoML archive (doi:10.1016/j.jct.2017.03.010).
Numbers after ± are expanded uncertainties.

Conditions: Liquid, Closed cell (Static) method

SMILES: FC(F)C(F)F [1,1,2,2-tetrafluoroethane]
- vapor or sublimation pressure (303.15 K): 613.8 ± 2.1 kPa
- vapor or sublimation pressure (313.15 K): 817.1 ± 2.7 kPa
- vapor or sublimation pressure (323.15 K): 1065.9 ± 3.5 kPa
- vapor or sublimation pressure (333.15 K): 1368.5 ± 4.5 kPa
- vapor or sublimation pressure (343.15 K): 1730.2 ± 5.7 kPa
